Reference: article PMC9719519, “Non-classical ferroptosis inhibition by a small molecule targeting PHB2” (Nature Communications, 2022)

Tests used:
Assay in all cases: biochemical
Set-up in all cases: Eurofins recombinant human kinase profiling, remaining kinase activity as % of control, 10 uM ATP
Conditions in all cases: ATP 10 uM; read-out: %Ctrl@10 μM
EGFR(L861Q)(h) = EGFR(L861Q)(h) (Homo sapiens, UniProt P00533, L861Q)
Procedure, shortened: (§1)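 Activity measured in a commercial panel of 401 recombinant human protein kinases run as a kinase profiling service.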

SRMS(h) = SRMS(h) (Homo sapiens, UniProt Q9H3Y6)
Procedure, shortened: as §1

SAPK2b(h) = target: T1, SAPK2b(h) (Homo sapiens, UniProt Q15759)
T1 construct: gene MAPK11
Procedure, shortened: as §1

EphB1(h) = EphB1(h) (Homo sapiens, UniProt P54762)
Procedure, shortened: as §1

CK1γ2(h) = target: T2, CK1γ2(h) (Homo sapiens, UniProt P78368)
T2 construct: gene CSNK1G2
Procedure, shortened: as §1

TGFBR2(h) = TGFBR2(h) (Homo sapiens, UniProt P37173)
Procedure, shortened: as §1

ATM(h) = ATM(h) (Homo sapiens, UniProt Q13315)
Procedure, shortened: as §1

PRAK(h) = target: T3, PRAK(h) (Homo sapiens, UniProt Q8IW41)
T3 construct: gene MAPKAPK5
Procedure, shortened: as §1

WNK4(h) = WNK4(h) (Homo sapiens, UniProt Q96J92)
Procedure, shortened: as §1

DNA-PK(h) = target: T4, DNA-PK(h) (Homo sapiens, UniProt P78527)
T4 construct: gene PRKDC
Procedure, shortened: as §1

IGF-1R(h) = target: T5, IGF-1R(h) (Homo sapiens, UniProt P08069)
T5 construct: gene IGF1R
Procedure, shortened: as §1

Pim-2(h) = target: T6, Pim-2(h) (Homo sapiens, UniProt Q9P1W9)
T6 construct: gene PIM2
Procedure, shortened: as §1

Snk(h) = target: T7, Snk(h) (Homo sapiens, UniProt Q9NYY3)
T7 construct: gene PLK2
Procedure, shortened: as §1

NEK11(h) = NEK11(h) (Homo sapiens, UniProt Q8NG66)
Procedure, shortened: as §1

LOK(h) = target: T8, LOK(h) (Homo sapiens, UniProt O94804)
T8 construct: gene STK10
Procedure, shortened: as §1

CaMKI(h) = target: T9, CaMKI(h) (Homo sapiens, UniProt Q14012)
T9 construct: gene CAMK1
Procedure, shortened: as §1

EphB3(h) = EphB3(h) (Homo sapiens, UniProt P54753)
Procedure, shortened: as §1

SNRK(h) = SNRK(h) (Homo sapiens, UniProt Q9NRH2)
Procedure, shortened: as §1

TRB2(h) = target: T10, TRB2(h) (Homo sapiens, UniProt Q92519)
T10 construct: gene TRIB2
Procedure, shortened: as §1

KDR(h) = KDR(h) (Homo sapiens, UniProt P35968)
Procedure, shortened: as §1

VRK2(h) = VRK2(h) (Homo sapiens, UniProt Q86Y07)
Procedure, shortened: as §1

B-Raf(h) = target: T11, B-Raf(h) (Homo sapiens, UniProt P15056)
T11 construct: gene BRAF
Procedure, shortened: as §1

CDKL1(h) = CDKL1(h) (Homo sapiens, UniProt Q00532)
Procedure, shortened: as §1

T9 sequence (Q14012 whole entry): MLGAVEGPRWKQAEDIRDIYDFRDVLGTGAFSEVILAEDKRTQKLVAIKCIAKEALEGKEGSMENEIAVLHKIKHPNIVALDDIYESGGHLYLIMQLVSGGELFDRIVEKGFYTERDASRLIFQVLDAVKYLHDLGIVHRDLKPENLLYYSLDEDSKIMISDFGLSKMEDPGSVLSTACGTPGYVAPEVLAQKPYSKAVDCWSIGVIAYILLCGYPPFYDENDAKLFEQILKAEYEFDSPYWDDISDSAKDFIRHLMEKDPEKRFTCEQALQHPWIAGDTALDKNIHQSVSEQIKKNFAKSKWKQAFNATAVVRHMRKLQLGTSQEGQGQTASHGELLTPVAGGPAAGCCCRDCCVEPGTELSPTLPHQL
Chain of VRK2(h) (Q86Y07 whole entry): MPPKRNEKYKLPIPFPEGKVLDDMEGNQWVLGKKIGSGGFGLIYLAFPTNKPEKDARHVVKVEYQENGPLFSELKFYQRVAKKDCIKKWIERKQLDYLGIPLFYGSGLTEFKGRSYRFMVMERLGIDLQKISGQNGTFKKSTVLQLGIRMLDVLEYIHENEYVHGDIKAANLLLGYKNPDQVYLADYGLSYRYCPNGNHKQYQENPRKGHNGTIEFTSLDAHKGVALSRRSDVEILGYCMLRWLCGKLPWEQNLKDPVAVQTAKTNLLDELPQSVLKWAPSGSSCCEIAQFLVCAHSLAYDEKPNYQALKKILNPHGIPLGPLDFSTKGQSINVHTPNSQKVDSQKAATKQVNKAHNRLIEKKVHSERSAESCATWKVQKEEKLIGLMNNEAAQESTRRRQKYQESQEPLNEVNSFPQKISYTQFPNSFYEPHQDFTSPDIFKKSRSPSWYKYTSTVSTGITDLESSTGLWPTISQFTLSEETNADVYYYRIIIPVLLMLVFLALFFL
T4 sequence (P78527 whole entry): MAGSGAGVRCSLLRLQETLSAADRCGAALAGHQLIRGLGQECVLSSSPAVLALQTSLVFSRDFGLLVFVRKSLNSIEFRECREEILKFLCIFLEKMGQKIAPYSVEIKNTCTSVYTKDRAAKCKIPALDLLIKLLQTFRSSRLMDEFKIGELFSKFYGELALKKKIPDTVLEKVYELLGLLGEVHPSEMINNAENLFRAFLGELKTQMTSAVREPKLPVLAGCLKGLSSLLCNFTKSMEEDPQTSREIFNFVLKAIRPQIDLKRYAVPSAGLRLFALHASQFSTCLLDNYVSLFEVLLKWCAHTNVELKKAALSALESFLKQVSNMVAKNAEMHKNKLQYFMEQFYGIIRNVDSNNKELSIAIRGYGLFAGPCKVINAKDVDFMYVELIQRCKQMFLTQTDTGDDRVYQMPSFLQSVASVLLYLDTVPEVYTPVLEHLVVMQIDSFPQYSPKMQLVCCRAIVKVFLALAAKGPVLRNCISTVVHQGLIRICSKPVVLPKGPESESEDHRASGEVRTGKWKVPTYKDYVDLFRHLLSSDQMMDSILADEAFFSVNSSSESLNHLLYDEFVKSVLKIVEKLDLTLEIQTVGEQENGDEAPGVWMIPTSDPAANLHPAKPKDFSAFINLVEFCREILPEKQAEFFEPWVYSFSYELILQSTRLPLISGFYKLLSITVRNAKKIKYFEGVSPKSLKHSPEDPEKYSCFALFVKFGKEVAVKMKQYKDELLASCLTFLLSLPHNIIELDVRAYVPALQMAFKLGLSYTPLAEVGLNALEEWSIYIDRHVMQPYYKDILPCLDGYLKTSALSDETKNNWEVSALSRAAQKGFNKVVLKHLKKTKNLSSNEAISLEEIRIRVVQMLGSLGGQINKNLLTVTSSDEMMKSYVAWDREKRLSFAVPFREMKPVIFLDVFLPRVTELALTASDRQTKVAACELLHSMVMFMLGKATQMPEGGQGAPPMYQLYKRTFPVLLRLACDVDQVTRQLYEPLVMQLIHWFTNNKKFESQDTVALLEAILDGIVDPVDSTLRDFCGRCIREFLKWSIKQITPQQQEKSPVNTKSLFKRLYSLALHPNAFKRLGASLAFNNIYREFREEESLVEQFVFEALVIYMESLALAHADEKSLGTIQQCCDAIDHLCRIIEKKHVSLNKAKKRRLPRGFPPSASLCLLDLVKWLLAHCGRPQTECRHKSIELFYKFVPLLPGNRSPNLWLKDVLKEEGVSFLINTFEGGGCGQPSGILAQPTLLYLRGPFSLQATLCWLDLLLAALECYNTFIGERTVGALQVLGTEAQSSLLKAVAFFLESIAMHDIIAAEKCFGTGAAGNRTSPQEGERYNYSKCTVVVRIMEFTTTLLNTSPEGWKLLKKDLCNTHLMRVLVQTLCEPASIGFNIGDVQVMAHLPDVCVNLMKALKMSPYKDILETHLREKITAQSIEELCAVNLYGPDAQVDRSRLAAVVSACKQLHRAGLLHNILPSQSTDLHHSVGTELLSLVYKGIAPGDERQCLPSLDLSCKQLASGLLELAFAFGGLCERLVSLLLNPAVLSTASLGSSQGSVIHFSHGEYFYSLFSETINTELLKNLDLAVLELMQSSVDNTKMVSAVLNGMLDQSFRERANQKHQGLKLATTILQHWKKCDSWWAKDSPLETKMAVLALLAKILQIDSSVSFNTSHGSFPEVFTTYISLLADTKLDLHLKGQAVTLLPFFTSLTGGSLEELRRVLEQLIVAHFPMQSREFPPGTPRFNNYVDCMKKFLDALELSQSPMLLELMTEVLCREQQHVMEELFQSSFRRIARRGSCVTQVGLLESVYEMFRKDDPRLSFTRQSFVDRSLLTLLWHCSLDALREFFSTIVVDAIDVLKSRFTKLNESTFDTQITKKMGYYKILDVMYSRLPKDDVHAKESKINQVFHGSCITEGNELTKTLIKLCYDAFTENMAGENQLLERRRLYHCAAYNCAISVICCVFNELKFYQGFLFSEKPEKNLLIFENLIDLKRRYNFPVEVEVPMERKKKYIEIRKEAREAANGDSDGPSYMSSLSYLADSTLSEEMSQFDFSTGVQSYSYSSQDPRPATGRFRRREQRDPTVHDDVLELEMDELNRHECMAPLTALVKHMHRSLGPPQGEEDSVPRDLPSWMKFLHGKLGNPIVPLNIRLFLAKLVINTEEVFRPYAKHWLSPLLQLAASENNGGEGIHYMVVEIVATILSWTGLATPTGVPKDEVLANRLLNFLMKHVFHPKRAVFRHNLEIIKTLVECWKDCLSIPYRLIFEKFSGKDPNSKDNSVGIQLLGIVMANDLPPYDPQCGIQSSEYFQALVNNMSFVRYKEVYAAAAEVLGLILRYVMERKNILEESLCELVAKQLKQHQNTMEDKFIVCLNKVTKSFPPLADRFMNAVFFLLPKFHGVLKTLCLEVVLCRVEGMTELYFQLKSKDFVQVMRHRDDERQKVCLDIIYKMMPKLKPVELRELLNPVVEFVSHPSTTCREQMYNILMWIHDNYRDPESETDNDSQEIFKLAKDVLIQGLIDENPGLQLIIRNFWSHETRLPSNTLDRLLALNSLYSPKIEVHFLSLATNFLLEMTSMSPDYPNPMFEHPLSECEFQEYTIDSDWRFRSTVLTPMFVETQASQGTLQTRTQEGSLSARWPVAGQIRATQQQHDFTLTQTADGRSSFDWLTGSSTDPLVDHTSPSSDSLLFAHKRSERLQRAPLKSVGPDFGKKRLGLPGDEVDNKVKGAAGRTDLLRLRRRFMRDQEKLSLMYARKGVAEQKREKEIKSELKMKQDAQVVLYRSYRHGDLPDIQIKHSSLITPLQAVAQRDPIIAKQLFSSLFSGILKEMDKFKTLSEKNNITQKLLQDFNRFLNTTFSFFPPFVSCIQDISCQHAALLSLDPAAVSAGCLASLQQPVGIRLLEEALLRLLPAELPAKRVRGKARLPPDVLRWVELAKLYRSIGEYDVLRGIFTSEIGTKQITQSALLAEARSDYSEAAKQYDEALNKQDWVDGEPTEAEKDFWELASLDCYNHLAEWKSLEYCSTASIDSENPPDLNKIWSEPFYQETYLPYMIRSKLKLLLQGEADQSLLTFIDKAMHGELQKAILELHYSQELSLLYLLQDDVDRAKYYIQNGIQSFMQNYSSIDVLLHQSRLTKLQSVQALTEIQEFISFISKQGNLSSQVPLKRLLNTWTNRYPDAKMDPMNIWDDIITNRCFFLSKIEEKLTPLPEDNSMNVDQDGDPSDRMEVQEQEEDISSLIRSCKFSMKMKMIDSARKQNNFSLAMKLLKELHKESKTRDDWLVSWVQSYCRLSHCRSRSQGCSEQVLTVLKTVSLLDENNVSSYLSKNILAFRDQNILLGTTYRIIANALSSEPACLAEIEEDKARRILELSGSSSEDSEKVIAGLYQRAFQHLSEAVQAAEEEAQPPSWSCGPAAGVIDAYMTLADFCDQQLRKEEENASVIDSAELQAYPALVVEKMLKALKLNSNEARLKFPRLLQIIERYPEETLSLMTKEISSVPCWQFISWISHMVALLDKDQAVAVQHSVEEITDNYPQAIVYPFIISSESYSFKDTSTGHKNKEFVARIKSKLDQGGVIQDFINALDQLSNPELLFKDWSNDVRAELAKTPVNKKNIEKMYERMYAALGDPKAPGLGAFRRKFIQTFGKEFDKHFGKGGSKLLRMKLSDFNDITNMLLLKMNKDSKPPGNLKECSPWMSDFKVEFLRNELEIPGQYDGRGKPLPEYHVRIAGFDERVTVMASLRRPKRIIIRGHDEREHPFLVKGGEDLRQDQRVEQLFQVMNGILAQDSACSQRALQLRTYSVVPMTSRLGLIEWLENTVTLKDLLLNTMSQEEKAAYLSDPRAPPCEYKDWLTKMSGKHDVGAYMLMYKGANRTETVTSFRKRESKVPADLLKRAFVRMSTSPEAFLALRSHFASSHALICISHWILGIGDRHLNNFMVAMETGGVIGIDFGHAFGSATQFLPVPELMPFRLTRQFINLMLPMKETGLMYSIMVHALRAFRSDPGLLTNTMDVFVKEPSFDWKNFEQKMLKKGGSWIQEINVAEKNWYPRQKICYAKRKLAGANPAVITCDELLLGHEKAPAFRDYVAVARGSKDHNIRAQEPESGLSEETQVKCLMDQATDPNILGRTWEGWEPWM

SMILES: C1=C(c2nc(-c3cnn(C4CCNCC4)c3)cn3cc(-c4ccccc4)nc23)CCOC1 [YL-939]
- remaining activity at 10 µM (EGFR(L861Q)(h)): 61%
- remaining activity at 10 µM (SRMS(h)): 122%
- remaining activity at 10 µM (SAPK2b(h)): 84%
- remaining activity at 10 µM (EphB1(h)): 99%
- remaining activity at 10 µM (CK1γ2(h)): 90%
- remaining activity at 10 µM (TGFBR2(h)): 97%
- remaining activity at 10 µM (ATM(h)): 86%
- remaining activity at 10 µM (PRAK(h)): 144%
- remaining activity at 10 µM (WNK4(h)): 102%
- remaining activity at 10 µM (DNA-PK(h)): 94%
- remaining activity at 10 µM (IGF-1R(h)): 82%
- remaining activity at 10 µM (Pim-2(h)): 84%
- remaining activity at 10 µM (Snk(h)): 112%
- remaining activity at 10 µM (NEK11(h)): 86%
- remaining activity at 10 µM (LOK(h)): 95%
- remaining activity at 10 µM (CaMKI(h)): 81%
- remaining activity at 10 µM (EphB3(h)): 93%
- remaining activity at 10 µM (SNRK(h)): 100%
- remaining activity at 10 µM (TRB2(h)): 59%
- remaining activity at 10 µM (KDR(h)): 108%
- remaining activity at 10 µM (VRK2(h)): 92%
- remaining activity at 10 µM (B-Raf(h)): 84%
- remaining activity at 10 µM (CDKL1(h)): 96%
